Several values for one entry are separate records, joined by “and”; a condition that tells them apart may be missing. Equal values may be shown once. Read-outs that look alike come from different tables or passages of the source.
Assay: Pharmacokinetic study, 3 mg/kg IV, 10 mg/kg PO and 10 mg/kg PO QD*3, plasma, liver and bone
Type: in vivo, mouse
Conditions: for Plasma concentration: individual values (1)-(3)
Experimental: The concentration of compound in plasma, liver, and long bones was detected using liquid chromatography tandem mass spectrometry (LC-MS/MS). Samples were collected after a single intraperitoneal (IP) administration at 30 mg/kg, a single intravenous (IV) administration at 3 mg/kg, a single oral (PO) administration at 10 mg/kg, and a daily PO administration for 3 consecutive days at 10 mg/kg. The compound was formulated in 75% PEG300 + 25% of 40% aq. HPBCD for IV and PO administration and in 60% Phosal + 40% PEG300 for IP administration. All tissue samples were homogenized in water at a tissue weight to water volume ratio 1:3.
IV administration, one 10 mg/kg PO administration and three 10 mg/kg PO administrations (QD*3). a Plasma, b liver and c bone profiles in female mice. The actual concentration (ng/g) is the detected value (ng/mL) multiplied by 4. Drug vehicle is 25% aq. 40% HP-b-CD - 75% PEG300. 3 mice were used per time point. Results are expressed as the mean ± SEM.

[1] = female, C57BL/6J, mouse, bone (long bones), iv, 3 mg/kg, bone, IV, individual animals, read-out: Bone 6641 IV concentration
[2] = female, C57BL/6J, mouse, bone (long bones), po, 10 mg/kg, bone, PO (QD*3), individual animals, read-out: Bone 6641 PO (QD*3) concentration
[3] = female, C57BL/6J, mouse, bone (long bones), po, 10 mg/kg, bone, PO, individual animals, read-out: Bone 6641 PO concentration

With `O=C1Nc2ccc(-c3cc(C(F)(F)F)cc(C(F)(F)F)c3)cc2C(=O)N2CCN(C(=O)COc3ccc(OC(F)(F)F)cc3I)C[C@@H]12` [compound 6641] the accumulation (10 mg/kg PO daily for 3 consecutive days) was “no accumulation”, the half-life (C57BL/6J, mouse, in vivo, female mice, depending on the route of administration (3 mg/kg IV, 10 mg/kg PO)) was 4 to 6.5 h and the bioavailability (C57BL/6J, mouse, plasma, 10 mg/kg PO, female mice) was 25 to 31%. For the same molecule, the “maximum concentration in bone tissue” value (IV administration, 3 mg/kg) was 1072 ng/g, the Plasma concentration (IV, Time 0.083 h) was 2772 ng/mL and 2884 ng/mL and the Plasma concentration (IV, Time 0.25 h) was 1472 ng/mL and 1152 ng/mL. The Plasma concentration (IV, Time 0.5 h) was 786 ng/mL and 964 ng/mL, the Plasma concentration (IV, Time 1 h) was 583 ng/mL and 464 ng/mL and the Plasma concentration (IV, Time 3 h) was 259 ng/mL and 205 ng/mL. The Plasma concentration (IV, Time 7 h) was 84.8 ng/mL and 68.4 ng/mL, the Plasma concentration (IV, Time 24 h) was 4.08 ng/mL and 5.43 ng/mL and the Plasma concentration (IV, Time 48 h, N/A: Below detection level) was 0.868 ng/mL. For the same molecule, the Plasma concentration (PO (QD*3), Time 0.083 h) was 7.56 ng/mL and 5.2 ng/mL, the Plasma concentration (PO (QD*3), Time 0.25 h) was 57.1 ng/mL and 50.6 ng/mL and the Plasma concentration (PO (QD*3), Time 0.5 h) was 185 ng/mL and 245 ng/mL and 104 ng/mL. The Plasma concentration (PO (QD*3), Time 1 h) was 484 ng/mL and 346 ng/mL, the Plasma concentration (PO (QD*3), Time 3 h) was 344 ng/mL and the Plasma concentration (PO (QD*3), Time 7 h) was 125 ng/mL and 179 ng/mL. The Plasma concentration (PO (QD*3), Time 24 h) was 3.9 ng/mL and 5.49 ng/mL, the Plasma concentration (PO (QD*3), Time 48 h, N/A: Below detection level) was 1 ng/mL and the “maximum concentration in bone tissue” value (PO administration, 10 mg/kg) was 170 to 300 ng/g. The Plasma concentration (PO, Time 0.25 h) was 32.7 ng/mL and 59.5 ng/mL, the Plasma concentration (PO, Time 0.5 h) was 159 ng/mL and 69 ng/mL and 120 ng/mL and the Plasma concentration (PO, Time 1 h) was 406 ng/mL and 323 ng/mL. The Plasma concentration (PO, Time 3 h) was 247 ng/mL and 204 ng/mL, the Plasma concentration (PO, Time 7 h) was 141 ng/mL and 122 ng/mL and the Plasma concentration (PO, Time 24 h) was 8.08 ng/mL and 4.6 ng/mL. For the same molecule, the concentration at 0.5 h (female, C57BL/6J, mouse, bone (long bones), 10 mg/kg, bone, PO, individual animals, read-out: Bone 6641 PO concentration) was 20.3 ng/g, the concentration at 0.083 h [1] was 1180 ng/g and the concentration at 0.25 h [1] was 1100 ng/g. For the same molecule, the concentration at 0.5 h [1] was 711 ng/g, the concentration at 1 h [1] was 632 ng/g and the concentration at 3 h [1] was 337 ng/g. The concentration at 7 h [1] was 87.9 ng/g, the concentration at 48 h (female, C57BL/6J, mouse, bone (long bones), iv, 3 mg/kg, bone, IV, 48 h, individual animals, N/A: Below detection level, read-out: Bone 6641 IV concentration) was 3.84 ng/g and the concentration at 0.25 h [2] was 19.5 ng/g. It also gave a concentration at 0.5 h [2] of 54.2 ng/g, a concentration at 1 h [2] of 168 ng/g and a concentration at 3 h [2] of 337 ng/g. It also gave a concentration at 7 h [2] of 141 ng/g, a concentration at 24 h (female, C57BL/6J, mouse, bone (long bones), po, 10 mg/kg, bone, PO (QD*3), 24 h, individual animals, read-out: Bone 6641 PO (QD*3) concentration) of 7.05 ng/g and a concentration at 0.083 h (female, C57BL/6J, mouse, bone (long bones), po, 10 mg/kg, bone, PO, individual animals, N/A: Below detection level, read-out: Bone 6641 PO concentration) of 3.07 ng/g. For the same molecule, the concentration at 0.25 h [3] was 5.39 ng/g, the concentration at 0.5 h [3] was 27.1 ng/g and the concentration at 1 h [3] was 114 ng/g. It also gave a concentration at 3 h [3] of 140 ng/g.

From paper PMC9636434, “Discovery of small molecule agonists of the Relaxin Family Peptide Receptor 2” (Communications Biology, 2022)
